In experiment [1] the test system is ZR-75-1. The experiment in a line: ZR-75-1 proliferation assay (CellTiter-Glo, day 14). The format is cell-based. Conditions: Homo sapiens, 336 h, CTG assay day 14; for IC50: ZR-75-1 proliferation; for Emax: inhibition of ZR-75-1 proliferation, read-out: Maximum inhibition rate/Imax %. From the text: Test Example 4: ZR-75-1 Proliferation Assay
I. Reagents and Instruments
• 1. ZR-75-1 (ATCC CRL1500) • 2. 1640 medium (Gibco, 22400-089) • 3. 0.25% trypsin-EDTA (1×) (Gibco, 25200-072) • 4. Penicillin-streptomycin (Gibco, 15140-122) • 5. DPBS (1×) (Gibco, 14190-144) • 6. FBS (Gibco, 10091148) • 7. Assay plate, 96-well, black with clear bottom (Corning, 3603) • 8. 96-well non-treated round-bottom plate (JET BIOFIL, TCP-002-096) • 9. CellTiter-Glo buffer (Promega, G756B) • 10. CellTiter-Glo substrate (Promega, G755B) • 11. Automatic cell counter (Countstar, IC1000) • 12. Thermostatic incubator (Thermo, 1160) • 13. PHERAstar FS (BMG labtech, PHERAstar FS)
a. The state of cells was observed under a microscope to make sure that the cell confluence was about 90%.
b. The cell supernatant was discarded. The cells were rinsed with DPBS once, and the DPBS was removed. The cells were digested with a proper amount of trypsin and left to stand at 37° C. for 5 min.
c. The digestion was stopped with an equal volume of 1640 medium containing 10% FBS, and the cell suspension was collected and centrifuged at 300 g for 3 min. The cells were suspended in a proper amount of fresh medium.
d. The resulting cell suspension was collected and cell counting was performed.
e. The cell suspension was diluted to 5×10^4/mL, 50 μL/well with 1640 medium containing 10% FBS. Each well contained 2500 ZR-75-1 cells.
f. The cell culture plates were incubated overnight in a 37° C., 5% carbon dioxide incubator.
2. Compound Addition (Day 1)
a. Each compound was serially diluted in DMSO to 9 concentration points (initial concentration of 100 μM, 3-fold dilution; the highest concentration of each compound may be adjusted depending on its IC50). For example, in a 96-well non-treated round-bottom plate, 3 μL of compound was serially diluted in 6 μL of DMSO.
b. Each concentration point of each compound was diluted 500-fold in the corresponding volume of 1640 medium.
c. 50 μL of diluted compound solution was added to the cell supernatant (50 μL/well) in each cell plate.
d. After the addition, the cell plates were incubated in a 37° C., 5% carbon dioxide incubator.
3. The Cells were Re-Digested and Plated, and the Compounds were Added (Day 7).
a. Six days after the addition, the compound-containing medium was discarded. Then the cells were rinsed with DPBS (150 μL/well), and the DPBS was immediately pipetted off.
b. The cells were digested with 50 μL of trypsin and left to stand at 37° C. for 3 min, and then the digestion was stopped with 1640 medium containing 10% FBS (150 μL/well).
c. The cells were well mixed using a pipette and re-plated at a ratio of 1:8; that is, 25 μL of cell suspension was pipetted into a new 96-well plate (25 μL of 1640 medium containing 10% FBS had been added to the new plate in advance).
d. Compound solution preparation and addition (50 μL/well) were performed according to steps a to c in 2.
e. After the addition, the cell plates were incubated in a 37° C., 5% carbon dioxide incubator.
a. CellTiter-Glo buffer and lyophilized CellTiter-Glo substrate were equilibrated to room temperature before use and were well mixed to prepare a 100-mL CellTiter-Glo reagent (or a prepared CellTiter-Glo reagent was removed from a −20° C. freezer and equilibrated to room temperature).
b. The plates to be tested were removed from the incubator and equilibrated to room temperature, and the CellTiter-Glo reagent was added at 50 μL/well.
c. The plates were shaken for 2 min so that the cells were completely lysed.
d. After the plates were left to stand at room temperature for 28 min and signals were stable, the plates were tested on PHERAstar FS.
Background: Cellular ATP, detected with luciferase, serves as a proxy for viable cell number.

The target in experiment [2] is human KAT6A (Homo sapiens (Human), UniProt Q92794). Description: KAT6 enzyme activity assay (AlphaScreen method), KAT6A. The format is biochemical. As to conditions: inhibition of the enzyme human KAT6A. An excerpt:
Test Example 1: KAT6 Enzyme Activity Assay (AlphaScreen Method)
I. Reagents and instrument • 1. KAT6A (customized by Chempartner) • 2. Ovalbumin (Sigma-Aldrich, A5378-5G) • 3. 2 M Tris-HCl solution, pH 7.8, sterile (Sangon, B548140-0500) • 4. 5 M NaCl solution (Sangon, B548121-0100) • 5. EDTA (0.5 M), pH 8.0, RNase-free (Thermofisher, AM9260G) • 6. Tween-20 (Sangon, A100777-0500) • 7. DTT, 1 M (Invitrogen, P2325) • 8. Acetyl coenzyme A (Ac-CoA, CAYMAN, Cat. No. 16160) • 9. Recombinant histone H3.1 biotinylated (human) (Active Motif 31696) • 10. 384-well plate, light gray (Perkin Elmer, Cat. No. 6005350) • 11. Anacardic acid (MCE, Cat. No. HY—N2020) • 12. AlphaScreen streptavidin donor beads, 5 mg (PerkinElmer, 6760002) • 13. AlphaScreen protein A acceptor beads, 5 mg (PerkinElmer, 6760137M) • 14. Acetylated-lysine antibody #9441 (CST 9441S) • 15. PHERA star microplate reader (BMG labtech) • II. Experimental method
a. 1× assay buffer: 100 mM Tris-HCl, pH 7.8; 15 mM NaCl; 1 mM EDTA; 0.01% tween-20; 1 mM DTT; 0.01% m/v ovalbumin.
b. KAT enzyme solution: 1.25 nM (final concentration), prepared in 1× assay buffer.
c. Mixed substrate of Ac-CoA and H3: a mixed substrate of 1000 nM (final concentration) Ac-CoA and 55 nM (final concentration) H3, prepared in 1× assay buffer.
d. Compounds: initial concentration of 100 μM, 3-fold dilution, 10 gradient concentrations. All compound concentrations were diluted 83-fold with 1× assay buffer for later use.
e. Assay reagent: 8 ng/μL (final concentration) AlphaScreen protein A acceptor beads, 8 ng/μL AlphaScreen streptavidin donor beads, 1:1500 diluted acetylated-lysine antibody, and 100 μM anacardic acid; prepared in 1× assay buffer.
2. Experimental Procedure
a. The prepared enzyme solution was added to a 384-well plate at 3 μL/well, and 3 μL of 1× assay buffer was added to each well in columns 23 and 24 (Min).
b. 3 μL of compound solution was added to each well, and 3 μL of buffer was added to each Min well; 3 μL of DMSO solution was added to each well in columns 1 and 2 (Max) as controls. The plate was centrifuged, shaken for 2 min, and incubated at room temperature for 15 min.
c. The mixed substrate of Ac-CoA and H3 was added at 6 μL/well, and the plate was centrifuged, shaken for 2 min, and incubated at room temperature for 20 min.
d. The assay reagent was added at 6 μL/well, and the plate was centrifuged, shaken for 2 min, and incubated in the dark at room temperature for 120 min.
e. Plate reading was performed on the microplate reader, and AlphaScreen counts were recorded.
f. Plotting was performed using the Graphpad software, and the IC50 values of the compounds were calculated.
In general terms: In Alpha technology, singlet oxygen from a donor bead excites a nearby acceptor bead.

Broadly, the IC50 is the concentration at which inhibition is half-maximal.

human KAT6A, sequence (Q92794 whole entry): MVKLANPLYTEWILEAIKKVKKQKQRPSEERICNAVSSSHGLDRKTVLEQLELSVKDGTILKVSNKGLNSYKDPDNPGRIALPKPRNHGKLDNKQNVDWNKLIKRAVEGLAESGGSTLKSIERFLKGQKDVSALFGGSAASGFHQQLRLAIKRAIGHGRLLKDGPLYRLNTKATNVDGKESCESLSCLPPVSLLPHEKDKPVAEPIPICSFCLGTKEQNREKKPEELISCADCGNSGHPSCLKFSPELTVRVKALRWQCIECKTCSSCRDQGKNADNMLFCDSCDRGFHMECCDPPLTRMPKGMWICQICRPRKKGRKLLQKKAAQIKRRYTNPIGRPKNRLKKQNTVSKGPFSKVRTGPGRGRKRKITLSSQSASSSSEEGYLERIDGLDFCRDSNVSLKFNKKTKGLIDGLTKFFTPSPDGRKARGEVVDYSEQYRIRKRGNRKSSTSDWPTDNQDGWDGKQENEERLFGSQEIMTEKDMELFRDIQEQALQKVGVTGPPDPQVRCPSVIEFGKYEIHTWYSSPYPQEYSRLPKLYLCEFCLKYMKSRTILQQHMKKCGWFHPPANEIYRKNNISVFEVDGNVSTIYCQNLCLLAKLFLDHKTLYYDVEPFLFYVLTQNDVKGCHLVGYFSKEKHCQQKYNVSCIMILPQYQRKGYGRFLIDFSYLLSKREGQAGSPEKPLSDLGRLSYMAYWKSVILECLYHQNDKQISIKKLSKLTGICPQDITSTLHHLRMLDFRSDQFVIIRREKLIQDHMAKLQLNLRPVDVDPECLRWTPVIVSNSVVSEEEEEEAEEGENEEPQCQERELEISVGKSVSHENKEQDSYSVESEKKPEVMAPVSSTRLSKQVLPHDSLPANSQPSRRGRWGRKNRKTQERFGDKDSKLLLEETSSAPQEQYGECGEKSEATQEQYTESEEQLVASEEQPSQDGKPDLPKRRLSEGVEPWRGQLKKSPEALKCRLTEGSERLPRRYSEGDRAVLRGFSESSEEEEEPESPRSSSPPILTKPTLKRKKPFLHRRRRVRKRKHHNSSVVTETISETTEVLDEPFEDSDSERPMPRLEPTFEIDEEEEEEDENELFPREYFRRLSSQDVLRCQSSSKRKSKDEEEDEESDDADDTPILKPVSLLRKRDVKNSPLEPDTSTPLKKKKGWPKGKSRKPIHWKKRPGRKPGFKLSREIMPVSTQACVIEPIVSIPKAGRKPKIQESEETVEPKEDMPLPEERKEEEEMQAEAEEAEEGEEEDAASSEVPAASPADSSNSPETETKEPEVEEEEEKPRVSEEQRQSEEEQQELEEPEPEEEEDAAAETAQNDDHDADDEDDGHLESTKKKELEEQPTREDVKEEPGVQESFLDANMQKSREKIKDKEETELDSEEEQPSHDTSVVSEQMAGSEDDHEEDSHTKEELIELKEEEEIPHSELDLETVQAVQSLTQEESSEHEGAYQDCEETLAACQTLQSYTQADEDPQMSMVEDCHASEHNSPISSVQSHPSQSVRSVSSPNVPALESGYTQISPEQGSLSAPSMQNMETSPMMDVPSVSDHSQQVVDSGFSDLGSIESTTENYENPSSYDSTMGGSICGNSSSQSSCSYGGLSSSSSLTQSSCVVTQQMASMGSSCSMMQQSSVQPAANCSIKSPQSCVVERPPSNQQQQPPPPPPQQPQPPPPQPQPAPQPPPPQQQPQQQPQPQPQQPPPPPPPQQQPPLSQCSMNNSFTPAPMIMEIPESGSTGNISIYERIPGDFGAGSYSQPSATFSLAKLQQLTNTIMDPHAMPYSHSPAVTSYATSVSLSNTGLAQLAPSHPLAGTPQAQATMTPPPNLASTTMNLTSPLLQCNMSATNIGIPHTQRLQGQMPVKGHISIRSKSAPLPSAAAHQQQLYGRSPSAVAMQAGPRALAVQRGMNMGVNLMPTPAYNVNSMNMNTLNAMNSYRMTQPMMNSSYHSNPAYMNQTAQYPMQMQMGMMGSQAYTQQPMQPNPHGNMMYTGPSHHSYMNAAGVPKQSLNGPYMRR

Regarding `CCOc1cc(C)ccc1S(=O)(=O)Nc1noc2cc(Cn3cccn3)c3c(c12)OCCC3` [Compound 7, N-(5-((1H-pyrazol-1-yl)methyl)-3,4-dihydro-2H-chromeno[8,7-d]isoxazol-9-yl)-2-ethoxy-4-methylbenzenesulfonamide], in experiment [1], the concentration for half-maximal inhibition (IC50) amounted to 1.6 nM and the Emax was found to be 95.6%. Besides, in experiment [2], half-maximal inhibition (IC50) was put at 0.5 nM.
Turning to `COc1cccc(OC(F)(F)F)c1S(=O)(=O)Nc1noc2cc(Cn3cccn3)c3c(c12)OCCC3` [Compound 10, N-(5-((1H-pyrazol-1-yl)methyl)-3,4-dihydro-2H-chromeno[8,7-d]isoxazol-9-yl)-2-methoxy-6-(trifluoromethoxy)benzenesulfonamide], in experiment [1], it took 2.95 nM to reach half-maximal inhibition (IC50) and the Emax amounted to 94.1%. The same molecule yielded an IC50 in experiment [2] of 0.9 nM.
Taken in the same sequence, the figures for `COc1ccccc1S(=O)(=O)Nc1noc2cc(Cn3cccn3)c3c(c12)OCC3` [Compound 20, N-(4-((1H-pyrazol-1-yl)methyl)-2,3-dihydrobenzofuro[7,6-d]isoxazol-8-yl)-2-methoxybenzenesulfonamide] were 8.6 nM, 94.9% and 2.9 nM.
Taken in the same sequence, the figures for `COc1ccccc1S(=O)(=O)Nc1noc2cc(Cn3cccn3)c3c(c12)OCCC3` [Compound 3, N-(5-((1H-pyrazol-1-yl)methyl)-3,4-dihydro-2H-chromeno[8,7-d]isoxazol-9-yl)-2-methoxybenzenesulfonamide] were 1.9 nM, 95% and 0.5 nM.
Consider `COc1cccc(OC(F)(F)F)c1S(=O)(=O)Nc1noc2cc(Cn3cccn3)c3c(c12)OCC3` [Compound 23, N-(4-((1H-pyrazol-1-yl)methyl)-2,3-dihydrobenzofuro[7,6-d]isoxazol-8-yl)-2-methoxy-6-(trifluoromethoxy)benzenesulfonamide], for which, in experiment [1], the IC50 amounted to 10.9 nM and the Emax amounted to 90.8%. Besides, inhibition in experiment [2] was half-maximal at 4.8 nM (IC50).
For `COc1ccc(F)cc1S(=O)(=O)Nc1noc2cc(Cn3cccn3)c3c(c12)OCCC3` [Compound 9, N-(5-((1H-pyrazol-1-yl)methyl)-3,4-dihydro-2H-chromeno[8,7-d]isoxazol-9-yl)-5-fluoro-2-methoxybenzenesulfonamide], in experiment [1], the IC50 amounted to 1.6 nM and the Emax is 96.2%. For the same molecule, the midpoint of inhibition in experiment [2], the IC50, lay at 0.7 nM.
Consider `COc1cccc(OC)c1S(=O)(=O)Nc1noc2cc(Cn3cccn3)c3c(c12)OC(F)(F)O3` [Compound 5, N-(4-((1H-pyrazol-1-yl)methyl)-2,2-difluoro-[1,3]dioxolo[4′,5′:5,6]benzo[1,2-d]isoxazol-8-yl)-2,6-dimethoxybenzenesulfonamide], for which the IC50 in experiment [1] was determined as 0.9 nM; in experiment [2], 1 nM. The Emax in experiment [1] worked out at 98%.
Regarding `COc1cccc(OC)c1S(=O)(=O)Nc1noc2cc(Cn3cccn3)c3c(c12)OCC3` [Compound 1, N-(4-((1H-pyrazol-1-yl)methyl)-2,3-dihydrobenzofuro[7,6-d]isoxazol-8-yl)-2,6-dimethoxybenzenesulfonamide], in experiment [1], half-maximal inhibition (IC50) was put at 1.4 nM and the Emax came out at 96%. The IC50 in experiment [2] turned out to be 0.6 nM.
On to `COc1cccc(OC)c1S(=O)(=O)Nc1noc2cc(Cn3cccn3)c3c(c12)OCCC3` [Compound 2, N-(5-((1H-pyrazol-1-yl)methyl)-3,4-dihydro-2H-chromeno[8,7-d]isoxazol-9-yl)-2,6-dimethoxybenzenesulfonamide], for which, in experiment [1], the midpoint of inhibition, the IC50, lay at 0.4 nM and the Emax turned out to be 96%.
`Cc1ccc(S(=O)(=O)Nc2noc3cc(Cn4cccn4)c4c(c23)OCCC4)c(OCC(F)(F)F)c1` [Compound 8, N-(5-((1H-pyrazol-1-yl)methyl)-3,4-dihydro-2H-chromeno[8,7-d]isoxazol-9-yl)-4-methyl-2-(2,2,2-trifluoroethoxy)benzenesulfonamide]: in experiment [1], it took 2.6 nM to reach half-maximal inhibition (IC50) and the Emax was 96.3%. In experiment [2], this molecule had an IC50 of 0.7 nM.

The values above are taken from US20250145637A1, “SULFONAMIDE DERIVATIVE, PREPARATION METHOD THEREFOR AND MEDICAL USE THEREOF” (Jiangsu Hengrui Pharmaceuticals Co. Ltd., priority 2021, published 2025).
